Tests used:
ECHCG [1] = assay: Post-emergence herbicidal action against ECHCG; type: in vivo, Echinochloa crus-galli
Procedure, shortened: (§1)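 Percent herbicidal action is rated by eye about 3 weeks after treatment against untreated controls, where 100% means dead plants and 0% means like controls. Plants in sandy loam are sprayed on green parts at the one-leaf stage with aqueous WP or EC preparations at 600 to 800 l/ha plus 0.2% wetting agent.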

VIOTR [2] = assay: Post-emergence herbicidal action against VIOTR; type: in vivo, Viola tricolor
Procedure, shortened: as §1

PHBPU [3] = assay: Post-emergence herbicidal action against PHBPU; type: in vivo, Pharbitis purpurea
Procedure, shortened: as §1

AMARE [4] = assay: Post-emergence herbicidal action against AMARE; type: in vivo, Amaranthus retroflexus; conditions: 20 g/ha, visual assessment about 3 weeks after treatment, 100% = plants have died, 0% = like control plants
Procedure, shortened: as §1

ALOMY [5] = assay: Post-emergence herbicidal action against ALOMY; type: in vivo, Alopecurus myosuroides; conditions: dosage 20 g/ha, visual assessment about 3 weeks after treatment vs untreated controls
Procedure, shortened: as §1

PHBPU [6] = assay: Pre-emergence herbicidal action against PHBPU; type: in vivo, Pharbitis purpurea; conditions: dosage 80 g/ha
Procedure, shortened: (§2)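 Seeds sown in sandy loam, soil-covered; compound sprayed on soil surface pre-emergence. Application: WP/EC, 600–800 l/ha, 0.2% wetting agent. Readout: visual % damage at 3 weeks.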

MATIN [7] = assay: Post-emergence herbicidal action against MATIN; type: in vivo, Matricaria inodora
Procedure, shortened: as §1

ABUTH [8] = assay: Pre-emergence herbicidal action against ABUTH; type: in vivo, Abutilon theophrasti; conditions: for Pre-emergence action against ABUTH (herbicidal activity): 80 g/ha, scored visually after 3 weeks vs untreated controls (100% = plants have died, 0% = like control plants); for Pre-emergence action against ABUTH (herbicidal activity in percent): dosage 20 g/ha, scored visually after 3 weeks vs untreated controls, 100% = plants have died, 0% = like control plants
Procedure, shortened: as §2

SETVI [9] = assay: Post-emergence herbicidal action against SETVI; type: in vivo, Setaria viridis
Procedure, shortened: as §1

VERPE [10] = assay: Pre-emergence herbicidal action against VERPE; type: in vivo, Veronica persica
Procedure, shortened: as §2

SETVI [11] = assay: Pre-emergence herbicidal action against SETVI; type: in vivo, Setaria viridis
Procedure, shortened: as §2

POLCO = assay: Pre-emergence herbicidal action against POLCO; type: in vivo, Polygonum convolvulus
Procedure, shortened: as §2

ALOMY [12] = assay: Pre-emergence herbicidal action against ALOMY; type: in vivo, Alopecurus myosuroides; conditions: 80 g/ha, pre-emergence, scored visually after 3 weeks vs untreated controls (100% = plants have died, 0% = like control plants)
Procedure, shortened: as §2

VERPE [13] = assay: Post-emergence herbicidal action against VERPE; type: in vivo, Veronica persica
Procedure, shortened: as §1

ABUTH [14] = assay: Post-emergence herbicidal action against ABUTH; type: in vivo, Abutilon theophrasti; conditions: visual assessment about 3 weeks after treatment vs untreated controls
Procedure, shortened: as §1

VIOTR [15] = assay: Pre-emergence herbicidal action against VIOTR; type: in vivo, Viola tricolor
Procedure, shortened: as §2

MATIN [16] = assay: Pre-emergence herbicidal action against MATIN; type: in vivo, Matricaria inodora
Procedure, shortened: as §2

AMARE [17] = assay: Pre-emergence herbicidal action against AMARE; type: in vivo, Amaranthus retroflexus
Procedure, shortened: as §2

ECHCG [18] = assay: Pre-emergence herbicidal action against ECHCG; type: in vivo, Echinochloa crus-galli; conditions: 80 g/ha
Procedure, shortened: as §2

DIGSA [19] = assay: Post-emergence herbicidal action against DIGSA; type: in vivo, Digitaria sanguinalis; conditions: for Post-emergence action against DIGSA in %: 5 g/ha; for Post-emergence action against DIGSA: 20 g/ha
Procedure, shortened: as §1

DIGSA [20] = assay: Pre-emergence herbicidal action against DIGSA; type: in vivo, Digitaria sanguinalis
Procedure, shortened: as §2

AVEFA = assay: Pre-emergence herbicidal action against AVEFA; type: in vivo, Avena fatua; conditions: 80 g/ha, pre-emergence
Procedure, shortened: as §2

[21] = 20 g/ha, scored visually after 3 weeks vs untreated controls, 100% = plants have died, 0% = like control plants
[22] = 80 g/ha, scored visually after 3 weeks vs untreated controls (100% = plants have died, 0% = like control plants)

SMILES	Post-emergence action against ECHCG in % (ECHCG [1]; dosage 20 g/ha)	Post-emergence action against VIOTR in % (VIOTR [2]; 20 g/ha)	Post-emergence action against PHBPU in % (PHBPU [3]; dosage 20 g/ha)	Post-emergence action against ALOMY in % (ALOMY [5])	Pre-emergence action against PHBPU in % (PHBPU [6])	Post-emergence action against MATIN in % (MATIN [7]; dosage 20 g/ha)	Pre-emergence action against ABUTH (herbicidal activity) (ABUTH [8])	Pre-emergence action against ABUTH (herbicidal activity in percent) (ABUTH [8])	Pre-emergence action against VERPE in % (VERPE [10]; dosage 80 g/ha)	Pre-emergence action against SETVI in % (SETVI [11]; dosage 80 g/ha)	Pre-emergence action against POLCO in % (POLCO; dosage 80 g/ha)	Pre-emergence action against ALOMY (herbicidal activity) (ALOMY [12])	Post-emergence action against VERPE in % (VERPE [13]; 20 g/ha)	Pre-emergence action against VIOTR in % (VIOTR [15]; dosage 80 g/ha)	Pre-emergence action against MATIN in % (MATIN [16]; dosage 80 g/ha)	Pre-emergence action against AMARE in % (AMARE [17]; [21])	Pre-emergence action against AMARE in % (AMARE [17]; [22])	Pre-emergence action against ECHCG in % (ECHCG [18])	Pre-emergence action against DIGSA in % (DIGSA [20]; dosage 20 g/ha)	Pre-emergence action against DIGSA in % (DIGSA [20]; dosage 80 g/ha)	other results
CCn1nnnc1NC(=O)c1ccc(C(F)(F)F)c(C(=O)NC)c1OC [Example 2-56]	100%	100%	90%	80%	80%	90%	100%	100%	100%	100%	90%	90%	80%	90%	100%	100%	100%	90%	100%	100%	Post-emergence action against VIOTR in % (VIOTR [2]; 5 g/ha): 80%; Post-emergence action against PHBPU in % (PHBPU [3]; dosage 5 g/ha): 80%; Post-emergence action at 20 g/ha against AMARE in % (AMARE [4]): 100%; Post-emergence action against MATIN in % (MATIN [7]; dosage 5 g/ha): 80%; Post-emergence action against SETVI in % (SETVI [9]; dosage 5 g/ha): 80%; Post-emergence action against SETVI in % (SETVI [9]; dosage 20 g/ha): 100%; Pre-emergence action against VERPE in % (VERPE [10]; dosage 20 g/ha): 80%; Pre-emergence action against SETVI in % (SETVI [11]; dosage 20 g/ha): 100%; Post-emergence action against ABUTH in % (ABUTH [14]; dosage 5 g/ha): 100%; Post-emergence action against ABUTH in % (ABUTH [14]; dosage 20 g/ha): 100%; Pre-emergence action against VIOTR in % (VIOTR [15]; dosage 20 g/ha): 80%; Pre-emergence action against MATIN in % (MATIN [16]; dosage 20 g/ha): 90%; Post-emergence action against DIGSA in % (DIGSA [19]): 90%; Post-emergence action against DIGSA (DIGSA [19]): 100%
CCn1nnnc1NC(=O)c1ccc(C(F)F)c(C(=O)NC2CC2)c1OC [Example 2-74]	80%	80%	80%	80%	90%	80%	100%	100%	90%	100%	80%	100%	80%	100%	100%	100%	100%	100%	100%	100%	Post-emergence action against ECHCG in % (ECHCG [1]; dosage 5 g/ha): 80%; Post-emergence action against SETVI in % (SETVI [9]; dosage 20 g/ha): 90%; Pre-emergence action against AVEFA in % (AVEFA): 80%; Post-emergence action against ABUTH in % (ABUTH [14]; dosage 5 g/ha): 80%; Post-emergence action against ABUTH in % (ABUTH [14]; dosage 20 g/ha): 80%; Pre-emergence action against VIOTR in % (VIOTR [15]; dosage 20 g/ha): 100%; Pre-emergence action against MATIN in % (MATIN [16]; dosage 20 g/ha): 100%
CCn1nnnc1NC(=O)c1ccc(Br)c(C(=O)NC(C)C2CC2)c1Cl (stereo not shown) [Example 2-183]	90%	100%	80%	80%	90%	90%	100%	100%	90%	100%	90%	90%	90%	100%	100%	90%	100%	90%	90%	100%	Post-emergence action against VIOTR in % (VIOTR [2]; 5 g/ha): 100%; Post-emergence action against MATIN in % (MATIN [7]; dosage 5 g/ha): 80%; Pre-emergence action against POLCO in % (POLCO; dosage 20 g/ha): 90%; Pre-emergence action against AVEFA in % (AVEFA): 80%; Pre-emergence action against MATIN in % (MATIN [16]; dosage 20 g/ha): 90%
CCn1nnnc1NC(=O)c1ccc(C(F)(F)F)c(C(=O)NCC2CC2)c1C1CC1 [Example 2-289]	90%	90%	90%	90%	80%	90%	100%	100%	100%	90%	80%	90%	100%	100%	100%	100%	100%	100%	100%	100%	Post-emergence action against ECHCG in % (ECHCG [1]; dosage 5 g/ha): 80%; Post-emergence action at 20 g/ha against AMARE in % (AMARE [4]): 100%; Post-emergence action against MATIN in % (MATIN [7]; dosage 5 g/ha): 80%; Post-emergence action against SETVI in % (SETVI [9]; dosage 20 g/ha): 80%; Post-emergence action against VERPE in % (VERPE [13]; 5 g/ha): 80%; Post-emergence action against ABUTH in % (ABUTH [14]; dosage 20 g/ha): 80%; Pre-emergence action against VIOTR in % (VIOTR [15]; dosage 20 g/ha): 100%; Pre-emergence action against MATIN in % (MATIN [16]; dosage 20 g/ha): 90%; Post-emergence action against DIGSA in % (DIGSA [19]): 90%; Post-emergence action against DIGSA (DIGSA [19]): 100%
Cc1nnc(NC(=O)c2ccc(C(F)F)c(C(=O)NC(C)C3CC3)c2C)o1 (stereo not shown) [Example 6-258]	90%			80%	90%		100%	100%	100%	80%	80%	90%	80%	80%	90%	100%	100%	100%	100%	100%	Post-emergence action against ECHCG in % (ECHCG [1]; dosage 5 g/ha): 80%; Post-emergence action at 20 g/ha against AMARE in % (AMARE [4]): 90%; Pre-emergence action against VERPE in % (VERPE [10]; dosage 20 g/ha): 90%; Post-emergence action against ABUTH in % (ABUTH [14]; dosage 5 g/ha): 80%; Post-emergence action against ABUTH in % (ABUTH [14]; dosage 20 g/ha): 90%; Post-emergence action against DIGSA (DIGSA [19]): 90%

Source: patent US12655116B2, “Substituted isophthalic acid diamides” (Bayer Aktiengesellschaft, priority 2020, dated 2026)
